Results from US20040110770A1, “Oxindoles which are inhibitors of CDK-1 and their application in therapeutics” (AVENTIS PHARMA SA, priority 2001, published 2004).
Where two headings read alike, the source gives them in different places.

Columns and labels:
[1] = system: p34cdc2/cyclin B (CDK1/cyclin B); assay: Inhibition of the p34cdc2/cyclin B activity (32P transfer from ATP to histone H1); format: biochemical, starfish or human recombinant
Description: The protein Histone H1 (type III-S) is obtained from Sigma. […] The reaction medium is prepared according to the following composition: 10 μl of enzymatic preparation are added to 5 μl of Histone H1 (5 mg/ml in buffer C) and to 7 μl of buffer C and mixed. 17.5 μl of the mixture are distributed in the tubes immediately before the test. 3 μl of inhibiting agent to be tested are added to each tube. The reaction is begun by the addition of 5 μl of the ATP solution, followed by incubating for 15 minutes at 30° C. The reaction is halted by the addition of 0.5 volumes of Laemli 3× buffer. […] The analysis and the quantification of the phosphorylation of the Histone H1 are carried out using an Instant-Imager device (Packard).

HLF = assay: cells; conditions: Homo sapiens, 288 h, read-out: IC50 inhibition of clonogenicity
Description: (§1) The Calc18 human tumour line is a gift from Professor G. Riou (Institut Gustave Roussy, Villejuif, France).
(§2) The cells in exponential growth phase are trypsinized, washed in PBS 1× and diluted to a final concentration of 5000 cells/ml in complete medium. The test products (in a volume of 50 μl) are added to 2.5 ml of suspension. […] The mixture is then immediately poured into Petri dishes and left at +4° C. for 5 minutes to solidify the agar.
(§3) The results are expressed as percentage of inhibition of the clonogenicity with respect to controls. The IC50 is determined graphically from the mean results determined for each concentration of compound.

HCT-116 = assay: cells; conditions: Homo sapiens, HCT-116, 288 h, read-out: IC50 inhibition of clonogenicity
Description: as §1, §2, §3

PC-14 = assay: cells; conditions: Homo sapiens, PC-14, 288 h, read-out: IC50 inhibition of clonogenicity
Description: as §1, §2, §3

C6 = assay: cells; conditions: Rattus norvegicus, C6, 288 h, read-out: IC50 inhibition of clonogenicity
Description: as §1, §2, §3

PC-3 = assay: cells; conditions: Homo sapiens, PC-3, 288 h, read-out: IC50 inhibition of clonogenicity
Description: as §1, §2, §3

HT-29 = assay: cells; conditions: Homo sapiens, HT-29, 288 h, read-out: IC50 inhibition of clonogenicity
Description: as §1, §2, §3

Lovo = assay: cells; conditions: Homo sapiens, 288 h, read-out: IC50 inhibition of clonogenicity
Description: as §1, §2, §3

HCT-8 = assay: cells; conditions: Homo sapiens, HCT-8, 288 h, read-out: IC50 inhibition of clonogenicity
Description: as §1, §2, §3

HLE = assay: cells; conditions: Homo sapiens, 288 h, read-out: IC50 inhibition of clonogenicity
Description: as §1, §2, §3

Calc18 = assay: cells; conditions: Homo sapiens, 288 h, read-out: IC50 inhibition of clonogenicity
Description: as §1, §2, §3

HCT-116 cells [2] = conditions: HCT-116, 1 μg/ml
Description: The HCT-116 cells are seeded in Nunc 6-well dishes.
The cells are treated with 30 μM BrDU for 30 minutes and then trypsinized. After fixing the cells in 1% paraformaldehyde for 16 hours, the latter are digested in pepsin/hydrochloric acid and then rinsed in PBS 1×. Immunolabelling is carried out with an anti-BrDU primary antibody (Becton Dickinson) and a GAM-FITC secondary antibody (Coulter). The DNA is subsequently labelled with propidium iodide in PBS comprising 1 mg/ml of boiled RNAse. This method makes it possible to count the cells in the G1, S and G2M phases.

HCT-116 cells [3] = assay: cells; conditions: Homo sapiens, HCT-116, 96 h, read-out: HCT-116 IC50 (inhibition of proliferation)
Description: The HCT-116 cells are cultured as a layer in a culture flask in Dulbecco's medium comprising L-glutamine 2 mM, penicillin 200 U/ml, streptomycin 2 μg/ml, with the addition of 10% of heat-inactivated foetal calf serum.
The incorporation of the dye in the cell, which reflects cell growth, is evaluated by spectrophotometry at a wavelength of 540 nm for each sample using a Dynatech MR5000 reading device.
For each compound concentration tested, the results are expressed as percentage of inhibition of cell growth and are calculated from the untreated control and from the cell-free (blank) culture medium according to the following formula:
(Value compound−value blank/value cell control−value blank)×100.

HCT-8 cells = conditions: HCT-8, 48 hours
Description: The percentage of mitotic cells and of cells having apoptotic nuclear bodies is determined by examination and counting of a sample of at least 300 cells distributed over several points of the slide using a fluorescent microscope.

O=C1Nc2ccc(C(=O)c3cccs3)cc2C1=Cc1cnc[nH]1 [Compound 5-7]
CDK1 % inhibition at 10 μM ([1]; 10 μM): 100%

O=C1Nc2ccc(Br)cc2C1=Cc1cnc[nH]1 [Compound 5-3]
CDK1 % inhibition at 10 μM ([1]; 10 μM): 100%

O=C1Nc2ccc([N+](=O)[O-])cc2C1=Cc1cnc[nH]1 [Compound 5-8]
CDK1 % inhibition at 10 μM ([1]; 10 μM): 81%

CC(=O)Nc1ccc2c(c1)C(=Cc1c[nH]cn1)C(=O)N2 [Compound 4, 1,3-dihydro-3-(imidazol-4-ylmethylene)-5-(acetylamino)-2H-indolin-2-one]
CDK1 % inhibition at 10 μM ([1]; 10 μM): 100%

CNC(=O)c1ccc2c(c1)C(=Cc1c[nH]cn1)C(=O)N2 [Compound 3, 1,3-dihydro-3-(imidazol-4-ylmethylene)-5-(N-methylcarboxamido)-2H-indolin-2-one]
CDK1 % inhibition at 10 μM ([1]; 10 μM): 100%

O=C1Nc2ccc([N+](=O)[O-])cc2C1=Cc1ccc[nH]1 [Compound 5-6]
CDK1 % inhibition at 10 μM ([1]; 10 μM): 91%

Cc1nc[nH]c1C=C1C(=O)Nc2ccc(S(N)(=O)=O)cc21 [Compound 5-12]
CDK1 % inhibition at 10 μM ([1]; 10 μM): 100%

O=C1Nc2ccc(-c3cccnc3)cc2C1=Cc1cnc[nH]1 [Compound 1, 1,3-dihydro-3-(imidazol-4-ylmethylene)-5-(pyrid-3-yl)-2H-indolin-2-one]
IC50 (HLF): 1100 nM | IC50 (HCT-116): 280 nM | IC50 (PC-14): 1100 nM | IC50 (C6): 10800 nM | IC50 (PC-3): 190 nM | IC50 (HT-29): 1420 nM | IC50 (Lovo): 900 nM | IC50 (HCT-8): 1040 nM | IC50 (HLE): 1200 nM | IC50 (Calc18): 1060 nM | Cells in G1 phase (%) (HCT-116 cells [2]; contact time 4 h): 62.2% | Cells in G2-M phase (%) (HCT-116 cells [2]; contact time 4 h): 16.4% | Cells in S phase (%) (HCT-116 cells [2]; contact time 4 h): 20.1% | Cells in G1 phase (%) (HCT-116 cells [2]; contact time 24 h): 26.8% | Cells in G2-M phase (%) (HCT-116 cells [2]; contact time 24 h): 31.4% | Cells in S phase (%) (HCT-116 cells [2]; contact time 24 h): 39.5% | Cells in G1 phase (%) (HCT-116 cells [2]; contact time 48 h): 7.9% | Cells in G2-M phase (%) (HCT-116 cells [2]; contact time 48 h): 58.9% | Cells in S phase (%) (HCT-116 cells [2]; contact time 48 h): 30.9% | Cells in G1 phase (%) (HCT-116 cells [2]; contact time 72 h): 7.8% | Cells in S phase (%) (HCT-116 cells [2]; contact time 72 h): 5.1% | CDK1 % inhibition at 10 μM [1]: 99% | IC50 (HCT-116 cells [3]): 280 nM | Apoptotic cells (%) (HCT-8 cells; 0.1 μg/ml): 8.5% | Apoptotic cells Factor/control (HCT-8 cells; 0.1 μg/ml): 3.5 | Mitotic cells (%) (HCT-8 cells; 0.1 μg/ml): 2.8% | Mitotic cells Factor/control (HCT-8 cells; 0.1 μg/ml): 0.4 | Apoptotic cells (%) (HCT-8 cells; 1 μg/ml): 16% | Apoptotic cells Factor/control (HCT-8 cells; 1 μg/ml): 6.6 | Mitotic cells (%) (HCT-8 cells; 1 μg/ml): 0.7% | Mitotic cells Factor/control (HCT-8 cells; 1 μg/ml): 0.1 | Apoptotic cells (%) (HCT-8 cells; 10 μg/ml): 42.5% | Apoptotic cells Factor/control (HCT-8 cells; 10 μg/ml): 17.7 | Mitotic cells (%) (HCT-8 cells; 10 μg/ml): 0.4% | Mitotic cells Factor/control (HCT-8 cells; 10 μg/ml): 0.06

Cc1nc[nH]c1C=C1C(=O)Nc2ccc(C(=O)O)cc21 [Compound 5-11]
CDK1 % inhibition at 10 μM ([1]; 10 μM): 100%

Cc1nc[nH]c1C=C1C(=O)Nc2ccc(-c3cccnc3)cc21 [Compound 5-10]
CDK1 % inhibition at 10 μM ([1]; 10 μM): 100%
